# Experimental data reported in patent publication US9422263B2, “Fluoro-substituted 3,5-dicyano-4-(1H-indazol-5-yl)-2,6-dimethyl-1,4-dihydropyridine derivatives and methods of use thereof” (BAYER PHARMA AKTIENGESELLSCHAFT, priority 2009, dated 2016).
# Key:
# [1] = Pharmacokinetics after intravenous administration of test compounds; type: in vivo, rat; conditions: for in vivo PK, rat i.v. CLblood: male Wistar rats, total blood clearance; for in vivo PK, rat i.v. Fmax, calc: Fmax,calc=[1−CLblood/Qh]*100, Qh 4.2 L per h per kg
# Procedure: Pharmacokinetics after Intravenous Administration of Test Compounds: Male Wistar rats (Harlan Laboratories) are anesthetized and a catheter is inserted into the jugular vein of the rat. The next day, a defined dose of the test compound is administered as solution by injection into the tail vein. Blood samples are collected through the jugular catheter during the next 24 h (8-11 time points). Blood is centrifuged in heparin-tubes, and each plasma sample is treated with acetonitrile for protein precipitation. After centrifugation, the test compound in the supernatant is quantified using an LC-MS/MS method. The determined plasma concentrations are used for the calculation of pharmacokinetic parameters, such as AUC (area under the plasma concentration vs. time curve), Vss (volume of distribution under steady-state conditions), Cmax (highest test compound concentration observed in plasma following administration), t1/2 (half-life) and CL (total clearance of the test compound from the plasma). For the calculation of the blood clearance, the blood to plasma partitioning is determined by incubation of the test compound in blood of rats. After separation of the plasma by centrifugation, the concentration in the plasma is determined by an LC-MS/MS method. Under the assumption that the test compound is completely absorbed, the theoretically maximum achievable bioavailability Fmax,calc is calculated by the equation Fmax,calc=[1−CLblood/Qh]*100, wherein CLblood is the total blood clearance and Qh is the hepatic blood flow in rat of 4.2 L per h per kg.
# [2] = biological target: Recombinant human c-Met protein (Homo sapiens (Human), UniProt P08581); experiment: c-Met receptor tyrosine kinase activity assay (NADH read-out); type: biochemical; conditions: ATP 30 μM, c-Met 30 nM
# Chain of Recombinant human c-Met protein (P08581 25-1390): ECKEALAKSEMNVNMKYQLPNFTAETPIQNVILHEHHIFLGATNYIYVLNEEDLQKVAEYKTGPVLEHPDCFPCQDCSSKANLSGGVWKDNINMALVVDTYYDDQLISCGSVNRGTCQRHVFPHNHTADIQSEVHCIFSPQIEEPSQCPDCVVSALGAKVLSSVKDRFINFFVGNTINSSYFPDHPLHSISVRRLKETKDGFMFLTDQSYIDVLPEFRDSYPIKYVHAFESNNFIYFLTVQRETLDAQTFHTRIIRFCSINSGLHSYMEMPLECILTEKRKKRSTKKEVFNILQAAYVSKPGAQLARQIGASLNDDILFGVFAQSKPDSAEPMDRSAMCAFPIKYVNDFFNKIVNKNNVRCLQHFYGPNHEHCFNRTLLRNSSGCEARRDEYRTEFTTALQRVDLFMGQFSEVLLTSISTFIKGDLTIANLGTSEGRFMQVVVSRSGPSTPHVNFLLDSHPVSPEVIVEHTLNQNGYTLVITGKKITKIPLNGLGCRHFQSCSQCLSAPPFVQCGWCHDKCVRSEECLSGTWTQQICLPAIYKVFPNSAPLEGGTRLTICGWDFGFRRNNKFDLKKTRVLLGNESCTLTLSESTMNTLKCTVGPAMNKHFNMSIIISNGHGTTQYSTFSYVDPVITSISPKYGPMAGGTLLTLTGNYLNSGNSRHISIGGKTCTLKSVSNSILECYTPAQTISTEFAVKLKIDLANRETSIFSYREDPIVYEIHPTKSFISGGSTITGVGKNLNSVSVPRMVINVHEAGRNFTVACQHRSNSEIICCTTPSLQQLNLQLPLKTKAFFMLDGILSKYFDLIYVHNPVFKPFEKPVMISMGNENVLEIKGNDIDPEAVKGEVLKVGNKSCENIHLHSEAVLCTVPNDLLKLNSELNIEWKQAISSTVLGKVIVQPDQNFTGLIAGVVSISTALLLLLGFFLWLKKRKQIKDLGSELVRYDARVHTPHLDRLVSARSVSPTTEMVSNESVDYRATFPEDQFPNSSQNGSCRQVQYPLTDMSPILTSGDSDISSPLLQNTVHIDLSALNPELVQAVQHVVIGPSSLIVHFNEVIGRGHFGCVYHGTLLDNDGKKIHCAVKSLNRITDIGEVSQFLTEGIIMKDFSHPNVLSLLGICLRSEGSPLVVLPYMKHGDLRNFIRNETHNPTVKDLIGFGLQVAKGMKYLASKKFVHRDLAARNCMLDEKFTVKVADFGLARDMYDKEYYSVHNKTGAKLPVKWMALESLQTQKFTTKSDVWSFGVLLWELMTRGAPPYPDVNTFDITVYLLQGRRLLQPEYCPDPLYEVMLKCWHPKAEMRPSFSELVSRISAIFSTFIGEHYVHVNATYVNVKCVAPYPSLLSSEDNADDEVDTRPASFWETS
# Procedure: c-Met Receptor Tyrosine Kinase Activity Assay (NADH Read-Out):
# Recombinant human c-Met protein (Invitrogen, Carlsbad, Calif., USA) is used. As substrate for the kinase reaction the peptide KKKSPGEYVNIEFG (JPT, Germany) is used. For the assay, 1 μL of a 51-fold concentrated solution of the test compound in DMSO is pipetted into a white 384-well microtiter plate (Greiner Bio-One, Frickenhausen, Germany). 25 μL of a solution of c-Met (final concentration 30 nM) and pyruvate kinase/lactate dehydrogenase (Roche Diagnostics, Mannheim, Germany; final concentration 8 mg/L) in assay buffer [3-(N-morpholino)propanesulfonic acid (MOPS), 50 mM, pH 7; MgCl2, 10 mM; bovine serum albumin (BSA), 0.01%; Triton X 100, 0.01%; DTT, 2 mM] are added, and the mixture is incubated for 5 min at room temperature. Then, the kinase reaction is started by the addition of 25 μL of a solution of adenosine triphosphate (ATP, final concentration 30 μM), substrate (final concentration 100 μM), nicotinamide adenine dinucleo-tide (NADH, final concentration 50 μM) and dithiothreitol (DTT, final concentration 2 mM) in assay buffer, and the resulting mixture is incubated for a reaction time of 100 min at 32° C.
# Subsequently, the amount of phosphorylated substrate is evaluated by measurement of the decrease of NADH fluorescence. Therefore, the fluorescence emissions at 465 nm after excitation at 340 nm is measured in a fluorescence reader, e.g. Tecan Ultra (Tecan, Männedorf, Switzerland). The data are normalised (enzyme reaction without inhibitor=0% inhibition; all other assay components but no enzyme=100% inhibition).
# [3] = Pharmacokinetics after peroral administration of test compounds; type: in vivo, rat; conditions: for in vivo PK, rat p.o. F / in vivo PK, rat p.o. AUCnorm: male Wistar rats; for in vivo PK, rat p.o. F: bioavailability; for in vivo PK, rat p.o. AUCnorm: dose and body weight-normalized AUC; for Fraction absorbed fabs, calc: rat p.o., fabs,calc=[F/Fmax,calc]*100
# Procedure: Pharmacokinetics after Peroral Administration of Test Compounds: Male Wistar rats (Harlan Laboratories) are anesthetized and a catheter is inserted into the jugular vein of the rat. The next day, a defined dose of the test compound is administered perorally. Blood samples are collected through the jugular catheter during the next 24 h (8-11 time points). Blood is centrifuged in heparin-tubes, and each plasma sample is treated with acetonitrile for protein precipitation. After centrifugation, the test compound in the supernatant is quantified using an LC-MS/MS method. The determined plasma concentrations are used for the determination of pharmacokinetic parameters, such as AUC (area under the plasma concentration vs. time curve), Cmax (highest test compound concentration observed in plasma following administration), t1/2 (half-life) and F (bioavailability). The fraction of the dose absorbed (fabs,calc) is calculated by the equation fabs,calc=[F/Fmax,calc]*100, wherein F is the determined bioavailability after peroral administration and Fmax,calc is the theoretically maximum achievable bioavailability considering the determined blood clearance and assuming that the test compound is completely absorbed.
# [4] = Caco-2 permeability assay; type: in vitro ADME; conditions: human, apical to basolateral, 2 h at 37° C., Table 3, read-out: Caco-2 permeability PappA-B
# Source text: Caco-2 Permeability Assay:
# The in vitro permeation of a test compound across a Caco-2 cell monolayer is a well-established assay system to predict the permeability from the gastro-intestinal tract [cf. P. Artursson and J. Karlsson: Correlation between oral drug absorption in humans and apparent drug permeability coefficients in human intestinal epithelial (Caco-2) cells, Biochem. Biophys. 175 (3), 880-885 (1991)]. The permeability of the compounds of the present invention in such Caco-2 cells was determined as described below:
# Human caco-2 cells (ACC No. 169, DSMZ, German Collection of Microorganisms and Cell Cultures, Braunschweig, Germany) are seeded on 24-well insert plates and are allowed to grow for 14-16 days. For permeability studies, the test compounds are dissolved in DMSO and diluted to the final test concentration of 2 μM with transport buffer [Hanks' Buffered Salt Solution, Gibco/Invitrogen, further supplemented with glucose (final concentration 19.9 mM) and HEPES (final concentration 9.8 mM)]. For determination of the apical to basolateral permeability (PappA-B), the test compound solution is added to the apical side of the cell monolayer and transport buffer to the basolateral side of the monolayer; for determination of the basolateral to apical permeability (PappB-A), the test compound solution is added to the basolateral side of the cell monolayer and transport buffer to the apical side of the monolayer. Samples are taken from the donor compartment at the beginning of the experiment to confirm mass balance. After an incubation of 2 h at 37° C., samples are taken from both compartments. Samples are analyzed by LC-MS/MS, and the apparent permeability coefficients are calculated. Lucifer Yellow permeability is assayed for each cell monolayer to ensure cell monolayer integrity, and the permeability of Atenolol (low permeability marker) and Sulfasalazine (marker for active excretion) is determined for each batch as quality control.
SMILES,"in vivo PK, rat i.v. CLblood [1] [mL/min/kg]","in vivo PK, rat i.v. Fmax, calc [1] [%]",IC50 [2] [nM],"in vivo PK, rat p.o. F [3] [%]","in vivo PK, rat p.o. AUCnorm [3] [kg·h/L]","Fraction absorbed fabs, calc [3] [%]","Papp at 2 h, 2 μM [4] [×10⁻⁶ cm/s]"
"Cc1n[nH]c2cc(F)c(C3C(C#N)=C(C(F)F)NC(C(F)F)=C3C#N)cc12 [Example 14, 2,6-Bis(difluoromethyl)-4-(6-fluoro-3-methyl-1H-indazol-5-yl)-1,4-dihydropyridine-3,5-dicarbonitrile]",4.67,93,26,62,4.73,67,27.1
"CC1=C(C#N)C(c2ccc3[nH]nc(C)c3c2)C(C#N)=C(C(F)F)N1 (single isomer, unassigned) [Example 3, 2-(Difluoromethyl)-6-methyl-4-(3-methyl-1H-indazol-5-yl)-1,4-dihydropyridine-3,5-dicarbonitrile]",52.3,25,6,33,0.16,131,16.4
"CC1=C(C#N)C(c2ccc3[nH]nc(C)c3c2)C(C#N)=C(C(F)(F)F)N1 (single isomer, unassigned) [Example 6]",28,60,12,62,0.70,104,31.1
